Data as given in ChEMBL document CHEMBL4814033, “Unique para-aminobenzenesulfonyl oxadiazoles as novel structural potential membrane active antibacterial agents towards drug-resistant methicillin resistant Staphylococcus aureus” (2021).
≈ marks a conversion by molar mass, not a printed value. Calls of active or inactive are those of the source. The calls are words filed in the database; no cut-off is given here.

Key:
Escherichia coli [1] = assay: Antibacterial activity against Escherichia coli ATCC 25922 by broth microdilution assay; assay type: functional
Staphylococcus aureus [2] = assay: Antibacterial activity against Staphylococcus aureus by broth microdilution assay; assay type: functional
Enterococcus faecalis = assay: Antibacterial activity against Enterococcus faecalis by broth microdilution assay; assay type: functional
Staphylococcus aureus [3] = assay: Antibacterial activity against methicillin-resistant Staphylococcus aureus by broth microdilution assay; assay type: functional
Staphylococcus aureus [4] = assay: Antibacterial activity against Staphylococcus aureus ATCC 25923 by broth microdilution assay; assay type: functional
Escherichia coli [5] = assay: Antibacterial activity against Escherichia coli by broth microdilution assay; assay type: functional
Pseudomonas aeruginosa [6] = assay: Antibacterial activity against Pseudomonas aeruginosa by broth microdilution assay; assay type: functional
Staphylococcus aureus [7] = assay: Antibacterial activity against Staphylococcus aureus ATCC 29213 by broth microdilution assay; assay type: functional
Klebsiella pneumoniae = assay: Antibacterial activity against Klebsiella pneumonia by broth microdilution assay; assay type: functional
Pseudomonas aeruginosa [8] = assay: Antibacterial activity against Pseudomonas aeruginosa ATCC 27853 by broth microdilution assay; assay type: functional
Acinetobacter baumannii = assay: Antibacterial activity against Acinetobacter baumannii by broth microdilution assay; assay type: functional
Calf thymus DNA [9] = assay: Binding affinity to calf thymus DNA assessed as enhancement in maximum absorption of DNA upto 26.7 uM by UV-vis absorption spectroscopy; assay type: tissue-based; conditions: Bos taurus, dose microM <=26.7
Staphylococcus aureus [10] = assay: Potency index, ratio of MIC of norfloxacin to MIC of compound for antibacterial activity against methicillin-resistant Staphylococcus aureus by broth microdilution assay; assay type: functional
Calf thymus DNA [11] = assay: Binding affinity to calf thymus DNA assessed as reduction in fluorescence intensity of DNA-AO complex by AO dye based fluorescence analysis; conditions: Bos taurus
Staphylococcus aureus [12] = assay: Antibacterial activity against methicillin-resistant Staphylococcus aureus assessed as metabolic inactivation by Alamar blue assay; assay type: functional, organism-based
Staphylococcus aureus [13] = assay: Antibacterial activity against methicillin-resistant Staphylococcus aureus assessed as reduction in bacterial growth measured after 16 passages; assay type: functional, organism-based
Cell membrane = assay: Disruption of inner cell membrane in methicillin-resistant Staphylococcus aureus at 4 times of MIC measured within 14 mins by PI uptake assay; assay type: subcellular
Calf thymus DNA [14] = assay: Binding affinity to calf thymus DNA assessed as red shift in absorption spectra upto 26.7 uM by UV-vis absorption spectroscopy; assay type: tissue-based; conditions: Bos taurus, dose microM <=26.7

With `CC(=O)Nc1ccc(S(=O)(=O)Cc2nnc(S)o2)cc1` the MIC (Escherichia coli [1]) was 256 µg/mL (≈ 817 µM), the MIC (Staphylococcus aureus [2]) was 256 µg/mL (≈ 817 µM) and the MIC (Enterococcus faecalis) was 128 µg/mL (≈ 408 µM). For the same compound, the MIC (Staphylococcus aureus [3]) was 256 µg/mL (≈ 817 µM), the MIC (Staphylococcus aureus [4]) was 256 µg/mL (≈ 817 µM) and the MIC (Escherichia coli [5]) was 256 µg/mL (≈ 817 µM). The MIC (Pseudomonas aeruginosa [6]) was 256 µg/mL (≈ 817 µM), the MIC (Staphylococcus aureus [7]) was 256 µg/mL (≈ 817 µM) and the MIC (Klebsiella pneumoniae) was 256 µg/mL (≈ 817 µM). For the same compound, the MIC (Pseudomonas aeruginosa [8]) was 256 µg/mL (≈ 817 µM) and the MIC (Acinetobacter baumannii) was 256 µg/mL (≈ 817 µM).
`CC(=O)Nc1ccc(S(=O)(=O)Cc2nnc(SCC3CC3)o2)cc1` showed an MIC (Escherichia coli [1]) of 128 µg/mL (≈ 348 µM), an MIC (Staphylococcus aureus [2]) of 128 µg/mL (≈ 348 µM) and an MIC (Enterococcus faecalis) of 64 µg/mL (≈ 174 µM). For the same compound, the MIC (Staphylococcus aureus [3]) was 8 µg/mL (≈ 21.8 µM), the MIC (Staphylococcus aureus [4]) was 64 µg/mL (≈ 174 µM) and the MIC (Escherichia coli [5]) was 8 µg/mL (≈ 21.8 µM). It also gave an MIC (Pseudomonas aeruginosa [6]) of 64 µg/mL (≈ 174 µM), an MIC (Staphylococcus aureus [7]) of 64 µg/mL (≈ 174 µM) and an MIC (Klebsiella pneumoniae) of 128 µg/mL (≈ 348 µM). It also gave an MIC (Pseudomonas aeruginosa [8]) of 64 µg/mL (≈ 174 µM) and an MIC (Acinetobacter baumannii) of 64 µg/mL (≈ 174 µM).
`CC(=O)Nc1ccc(S(=O)(=O)Cc2nnc(SCC(=O)O)o2)cc1` was tested, and the MIC (Escherichia coli [1]) was 128 µg/mL (≈ 345 µM), the MIC (Staphylococcus aureus [2]) was 128 µg/mL (≈ 345 µM) and the MIC (Enterococcus faecalis) was 64 µg/mL (≈ 172 µM). The MIC (Staphylococcus aureus [3]) was 32 µg/mL (≈ 86.2 µM), the MIC (Staphylococcus aureus [4]) was 64 µg/mL (≈ 172 µM) and the MIC (Escherichia coli [5]) was 32 µg/mL (≈ 86.2 µM). It also gave an MIC (Pseudomonas aeruginosa [6]) of 128 µg/mL (≈ 345 µM), an MIC (Staphylococcus aureus [7]) of 64 µg/mL (≈ 172 µM) and an MIC (Klebsiella pneumoniae) of 64 µg/mL (≈ 172 µM). It also gave an MIC (Pseudomonas aeruginosa [8]) of 128 µg/mL (≈ 345 µM) and an MIC (Acinetobacter baumannii) of 32 µg/mL (≈ 86.2 µM).
Work on `CC(=O)Nc1ccc(S(=O)(=O)Cc2nnc(SCc3ccc(Cl)cc3Cl)o2)cc1` yielded an MIC (Escherichia coli [1]) of 64 µg/mL (≈ 135 µM), an MIC (Staphylococcus aureus [2]) of 64 µg/mL (≈ 135 µM) and an MIC (Enterococcus faecalis) of 128 µg/mL (≈ 271 µM). For the same compound, the MIC (Staphylococcus aureus [3]) was 2 µg/mL (≈ 4.23 µM), the MIC (Staphylococcus aureus [4]) was 256 µg/mL (≈ 542 µM) and the MIC (Escherichia coli [5]) was 16 µg/mL (≈ 33.9 µM). It also gave an MIC (Pseudomonas aeruginosa [6]) of 64 µg/mL (≈ 135 µM), an MIC (Staphylococcus aureus [7]) of 32 µg/mL (≈ 67.7 µM) and an MIC (Klebsiella pneumoniae) of 16 µg/mL (≈ 33.9 µM). For the same compound, the MIC (Pseudomonas aeruginosa [8]) was 256 µg/mL (≈ 542 µM) and the MIC (Acinetobacter baumannii) was 32 µg/mL (≈ 67.7 µM).
`CCCCCCSc1nnc(CS(=O)(=O)c2ccc(NC(C)=O)cc2)o1` was tested, and the Activity (Calf thymus DNA [9]) was “Active”, the Ratio (Staphylococcus aureus [10]) was 16 and the MIC (Escherichia coli [1]) was 128 µg/mL (≈ 322 µM). The MIC (Staphylococcus aureus [2]) was 256 µg/mL (≈ 644 µM), the Activity (Calf thymus DNA [11]) was “Active” and the MIC (Enterococcus faecalis) was 128 µg/mL (≈ 322 µM). The Activity (Staphylococcus aureus [12]) was “Active”, the MIC (Staphylococcus aureus [3]) was 1 µg/mL (≈ 2.52 µM) and the MIC (Staphylococcus aureus [4]) was 256 µg/mL (≈ 644 µM). For the same compound, the Activity (Staphylococcus aureus [13]) was “Active”, the MIC (Escherichia coli [5]) was 256 µg/mL (≈ 644 µM) and the MIC (Pseudomonas aeruginosa [6]) was 256 µg/mL (≈ 644 µM). For the same compound, the MIC (Staphylococcus aureus [7]) was 256 µg/mL (≈ 644 µM), the MIC (Klebsiella pneumoniae) was 8 µg/mL (≈ 20.1 µM) and the MIC (Pseudomonas aeruginosa [8]) was 256 µg/mL (≈ 644 µM). The MIC (Acinetobacter baumannii) was 32 µg/mL (≈ 80.5 µM), the Activity (Cell membrane) was “Active” and the Activity (Calf thymus DNA [14]) was “Active”.
For `CCn1cc(C(=O)O)c(=O)c2cc(F)c(N3CCNCC3)cc21` [NORFLOXACIN], the MIC (Escherichia coli [1]) was 8 µg/mL (≈ 25.1 µM), the MIC (Staphylococcus aureus [2]) was 4 µg/mL (≈ 12.5 µM) and the MIC (Enterococcus faecalis) was 8 µg/mL (≈ 25.1 µM). The MIC (Staphylococcus aureus [3]) was 16 µg/mL (≈ 50.1 µM), the MIC (Staphylococcus aureus [4]) was 8 µg/mL (≈ 25.1 µM) and the Activity (Staphylococcus aureus [13]) was “inactive”. It also gave an MIC (Escherichia coli [5]) of 8 µg/mL (≈ 25.1 µM), an MIC (Pseudomonas aeruginosa [6]) of 4 µg/mL (≈ 12.5 µM) and an MIC (Staphylococcus aureus [7]) of 8 µg/mL (≈ 25.1 µM). It also gave an MIC (Klebsiella pneumoniae) of 16 µg/mL (≈ 50.1 µM), an MIC (Pseudomonas aeruginosa [8]) of 8 µg/mL (≈ 25.1 µM) and an MIC (Acinetobacter baumannii) of 8 µg/mL (≈ 25.1 µM).
`CC(=O)Nc1ccc(S(=O)(=O)Cc2nnc(SCCF)o2)cc1` showed a Ratio (Staphylococcus aureus [10]) of 8, an MIC (Escherichia coli [1]) of 64 µg/mL (≈ 178 µM) and an MIC (Staphylococcus aureus [2]) of 64 µg/mL (≈ 178 µM). The MIC (Enterococcus faecalis) was 64 µg/mL (≈ 178 µM), the MIC (Staphylococcus aureus [3]) was 2 µg/mL (≈ 5.56 µM) and the MIC (Staphylococcus aureus [4]) was 128 µg/mL (≈ 356 µM). For the same compound, the MIC (Escherichia coli [5]) was 32 µg/mL (≈ 89 µM), the MIC (Pseudomonas aeruginosa [6]) was 64 µg/mL (≈ 178 µM) and the MIC (Staphylococcus aureus [7]) was 32 µg/mL (≈ 89 µM). The MIC (Klebsiella pneumoniae) was 32 µg/mL (≈ 89 µM), the MIC (Pseudomonas aeruginosa [8]) was 128 µg/mL (≈ 356 µM) and the MIC (Acinetobacter baumannii) was 64 µg/mL (≈ 178 µM).
With `CC(=O)CSc1nnc(CS(=O)(=O)c2ccc(NC(C)=O)cc2)o1` the MIC (Escherichia coli [1]) was 64 µg/mL (≈ 173 µM), the MIC (Staphylococcus aureus [2]) was 64 µg/mL (≈ 173 µM) and the MIC (Enterococcus faecalis) was 64 µg/mL (≈ 173 µM). It also gave an MIC (Staphylococcus aureus [3]) of 2 µg/mL (≈ 5.41 µM), an MIC (Staphylococcus aureus [4]) of 128 µg/mL (≈ 346 µM) and an MIC (Escherichia coli [5]) of 16 µg/mL (≈ 43.3 µM). The MIC (Pseudomonas aeruginosa [6]) was 64 µg/mL (≈ 173 µM), the MIC (Staphylococcus aureus [7]) was 32 µg/mL (≈ 86.6 µM) and the MIC (Klebsiella pneumoniae) was 16 µg/mL (≈ 43.3 µM). For the same compound, the MIC (Pseudomonas aeruginosa [8]) was 128 µg/mL (≈ 346 µM) and the MIC (Acinetobacter baumannii) was 64 µg/mL (≈ 173 µM).
For `CCN(CC)CCSc1nnc(CS(=O)(=O)c2ccc(NC(C)=O)cc2)o1`, the MIC (Escherichia coli [1]) was 128 µg/mL (≈ 310 µM), the MIC (Staphylococcus aureus [2]) was 128 µg/mL (≈ 310 µM) and the MIC (Enterococcus faecalis) was 64 µg/mL (≈ 155 µM). It also gave an MIC (Staphylococcus aureus [3]) of 32 µg/mL (≈ 77.6 µM), an MIC (Staphylococcus aureus [4]) of 64 µg/mL (≈ 155 µM) and an MIC (Escherichia coli [5]) of 64 µg/mL (≈ 155 µM). It also gave an MIC (Pseudomonas aeruginosa [6]) of 128 µg/mL (≈ 310 µM), an MIC (Staphylococcus aureus [7]) of 64 µg/mL (≈ 155 µM) and an MIC (Klebsiella pneumoniae) of 128 µg/mL (≈ 310 µM). The MIC (Pseudomonas aeruginosa [8]) was 64 µg/mL (≈ 155 µM) and the MIC (Acinetobacter baumannii) was 32 µg/mL (≈ 77.6 µM).
